The results in this text go back to BindingDB's records for patent US11034692 (Genentech, 2021).

The target of this assay is Mitogen-activated protein kinase kinase kinase kinase 1 (Homo sapiens, UniProt Q92918). The experiment in a line: Binding Assay. On the procedure: Lanth: For the binding assay, 4 ul 2×HPK1 and Eu-anti-GST antibody were added to each well of the assay plate using a Multidrop reagent dispenser. The solutions were incubated in a 23 C incubator for 1 h. To each well of the assay plate was added 4 ul 2× Tracer-222 using a Multidrop reagent dispenser. The solutions were again incubated in a 23 C incubator for 1 h. The results of the assay were read using an Envision plate reader with the following parameters: TR_FRET, 340ex/615 and 665em; 100 usec Delay; and 200 usec integration.

pKi: −log10 of the molar value.

The term pKi denotes the negative decadic logarithm of the Ki, by convention in mol/L. Lower therefore signals a large Ki.

Mitogen-activated protein kinase kinase kinase kinase 1, sequence (Q92918 whole entry): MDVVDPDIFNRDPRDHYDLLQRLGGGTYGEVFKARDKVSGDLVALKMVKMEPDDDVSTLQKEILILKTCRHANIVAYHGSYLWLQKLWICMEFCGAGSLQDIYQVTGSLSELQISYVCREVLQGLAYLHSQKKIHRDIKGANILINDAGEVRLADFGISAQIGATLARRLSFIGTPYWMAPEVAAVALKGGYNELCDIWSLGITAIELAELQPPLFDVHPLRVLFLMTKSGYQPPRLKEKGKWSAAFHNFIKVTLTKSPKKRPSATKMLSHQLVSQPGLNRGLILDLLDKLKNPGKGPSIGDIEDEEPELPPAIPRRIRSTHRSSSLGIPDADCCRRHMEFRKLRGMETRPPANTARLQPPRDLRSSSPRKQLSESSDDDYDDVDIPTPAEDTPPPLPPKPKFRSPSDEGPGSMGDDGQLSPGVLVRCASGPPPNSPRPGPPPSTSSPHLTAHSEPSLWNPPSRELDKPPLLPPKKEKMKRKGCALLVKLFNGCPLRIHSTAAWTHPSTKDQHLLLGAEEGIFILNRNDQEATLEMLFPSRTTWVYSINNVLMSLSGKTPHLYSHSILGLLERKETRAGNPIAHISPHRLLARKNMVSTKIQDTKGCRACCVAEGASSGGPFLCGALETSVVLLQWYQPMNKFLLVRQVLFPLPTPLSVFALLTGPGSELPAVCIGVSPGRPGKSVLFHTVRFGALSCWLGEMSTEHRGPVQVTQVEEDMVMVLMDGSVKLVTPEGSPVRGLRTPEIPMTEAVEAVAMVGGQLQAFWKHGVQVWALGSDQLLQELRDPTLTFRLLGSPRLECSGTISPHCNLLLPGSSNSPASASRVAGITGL

`Cn1cc(-c2cc3cc(NC(=O)[C@H]4C[C@H]4F)ncc3c(N)n2)cn1` [US11034692, Compound 4] showed a pKi of 8.54.
